Measurements from publication doi:10.1101/2023.11.24.568596v1 (biorxiv, 2023).

Legend:
Details in all cases: binder
NEK1 = target: T1, NEK1 (Homo sapiens, UniProt Q96PY6)
T1 sequence (Q96PY6 1-1258): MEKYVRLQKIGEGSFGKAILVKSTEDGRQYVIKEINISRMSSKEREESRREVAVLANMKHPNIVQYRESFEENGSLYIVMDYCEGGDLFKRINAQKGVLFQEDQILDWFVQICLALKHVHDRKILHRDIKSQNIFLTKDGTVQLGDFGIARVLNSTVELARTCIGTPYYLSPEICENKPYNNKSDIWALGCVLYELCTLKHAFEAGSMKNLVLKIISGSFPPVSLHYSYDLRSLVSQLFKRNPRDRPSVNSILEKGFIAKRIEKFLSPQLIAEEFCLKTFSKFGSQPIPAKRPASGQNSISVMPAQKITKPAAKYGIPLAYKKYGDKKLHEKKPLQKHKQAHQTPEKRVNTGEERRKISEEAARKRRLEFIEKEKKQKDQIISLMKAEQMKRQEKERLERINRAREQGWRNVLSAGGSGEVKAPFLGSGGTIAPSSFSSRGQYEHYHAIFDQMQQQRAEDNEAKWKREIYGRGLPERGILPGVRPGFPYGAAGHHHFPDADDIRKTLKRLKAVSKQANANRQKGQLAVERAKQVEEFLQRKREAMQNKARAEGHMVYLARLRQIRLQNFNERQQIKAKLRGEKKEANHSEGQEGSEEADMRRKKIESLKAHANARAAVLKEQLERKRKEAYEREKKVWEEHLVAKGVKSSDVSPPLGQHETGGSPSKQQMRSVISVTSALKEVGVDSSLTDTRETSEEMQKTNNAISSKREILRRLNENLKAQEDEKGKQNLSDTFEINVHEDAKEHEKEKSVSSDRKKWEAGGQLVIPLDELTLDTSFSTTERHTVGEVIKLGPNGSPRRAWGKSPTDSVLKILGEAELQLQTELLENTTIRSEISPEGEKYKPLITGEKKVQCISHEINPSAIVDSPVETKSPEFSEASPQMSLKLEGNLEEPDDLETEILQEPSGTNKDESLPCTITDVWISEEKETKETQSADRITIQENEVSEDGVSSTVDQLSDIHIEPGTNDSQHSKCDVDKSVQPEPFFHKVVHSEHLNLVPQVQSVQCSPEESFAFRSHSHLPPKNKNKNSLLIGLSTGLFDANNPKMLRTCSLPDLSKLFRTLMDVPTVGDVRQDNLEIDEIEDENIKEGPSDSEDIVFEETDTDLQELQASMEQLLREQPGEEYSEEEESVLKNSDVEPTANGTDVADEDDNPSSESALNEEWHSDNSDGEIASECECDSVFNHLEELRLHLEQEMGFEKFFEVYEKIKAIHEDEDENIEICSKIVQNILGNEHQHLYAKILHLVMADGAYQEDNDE

STLK3 = STLK3 (Homo sapiens, UniProt Q9UEW8)
BRAF = BRAF (Homo sapiens, UniProt P15056)
PIM3 = PIM3 (Homo sapiens, UniProt Q86V86)
DRAK1 = target: T2, DRAK1 (Homo sapiens, UniProt Q9UEE5)
T2 sequence (Q9UEE5 1-414): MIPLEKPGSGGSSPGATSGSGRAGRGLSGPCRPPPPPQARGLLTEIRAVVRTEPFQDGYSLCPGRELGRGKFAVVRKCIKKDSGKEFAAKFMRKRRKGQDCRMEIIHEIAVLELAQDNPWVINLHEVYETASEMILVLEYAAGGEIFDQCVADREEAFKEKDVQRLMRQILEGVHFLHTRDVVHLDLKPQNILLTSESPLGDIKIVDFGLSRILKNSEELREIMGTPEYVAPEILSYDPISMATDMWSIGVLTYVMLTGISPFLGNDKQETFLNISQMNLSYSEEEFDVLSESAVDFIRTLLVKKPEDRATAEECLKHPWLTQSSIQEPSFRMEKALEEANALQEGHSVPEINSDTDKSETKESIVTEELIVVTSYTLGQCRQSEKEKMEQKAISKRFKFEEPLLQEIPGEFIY

DRAK2 = target: T3, DRAK2 (Homo sapiens, UniProt O94768)
T3 sequence (O94768 1-372): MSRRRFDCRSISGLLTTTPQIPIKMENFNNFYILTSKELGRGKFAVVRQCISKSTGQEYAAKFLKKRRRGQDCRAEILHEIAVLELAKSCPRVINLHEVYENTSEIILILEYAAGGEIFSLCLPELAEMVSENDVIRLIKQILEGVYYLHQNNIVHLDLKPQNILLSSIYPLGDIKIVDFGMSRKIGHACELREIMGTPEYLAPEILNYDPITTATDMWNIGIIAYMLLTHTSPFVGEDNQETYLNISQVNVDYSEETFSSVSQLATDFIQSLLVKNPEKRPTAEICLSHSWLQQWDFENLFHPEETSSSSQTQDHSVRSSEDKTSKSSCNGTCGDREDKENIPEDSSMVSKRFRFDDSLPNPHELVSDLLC

Chain of BRAF (P15056 whole entry): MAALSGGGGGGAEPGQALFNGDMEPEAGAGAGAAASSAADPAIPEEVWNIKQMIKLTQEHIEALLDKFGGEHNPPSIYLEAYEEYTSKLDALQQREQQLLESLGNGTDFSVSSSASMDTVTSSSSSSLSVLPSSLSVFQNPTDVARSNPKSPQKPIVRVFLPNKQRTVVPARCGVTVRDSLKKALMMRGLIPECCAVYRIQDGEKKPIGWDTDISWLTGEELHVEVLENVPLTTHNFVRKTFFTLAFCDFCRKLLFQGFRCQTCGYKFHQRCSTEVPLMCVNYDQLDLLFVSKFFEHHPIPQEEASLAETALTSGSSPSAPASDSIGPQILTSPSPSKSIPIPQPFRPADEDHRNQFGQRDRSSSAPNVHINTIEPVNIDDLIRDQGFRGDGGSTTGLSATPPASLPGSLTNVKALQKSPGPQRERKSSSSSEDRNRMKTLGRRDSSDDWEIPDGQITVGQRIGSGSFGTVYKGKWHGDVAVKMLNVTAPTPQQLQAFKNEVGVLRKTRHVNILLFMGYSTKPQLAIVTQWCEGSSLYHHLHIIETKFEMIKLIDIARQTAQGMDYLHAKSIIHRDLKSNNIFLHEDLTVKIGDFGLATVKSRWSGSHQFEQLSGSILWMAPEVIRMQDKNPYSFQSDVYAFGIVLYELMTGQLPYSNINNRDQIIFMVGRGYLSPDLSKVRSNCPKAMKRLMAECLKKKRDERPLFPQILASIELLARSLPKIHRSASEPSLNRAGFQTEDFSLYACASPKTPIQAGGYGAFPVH

With `COc1cc(N2CCN(C)CC2)ccc1Nc1ncc2cc(-c3ccc(-c4cccc(C)n4)cc3Cl)c(=O)n(CCCCN)c2n1` [compound 36, 8-(4-Aminobutyl)-6-(2-chloro-4-(6-methylpyridin-2-yl)phenyl)-2-((2-methoxy-4-(4-methylpiperazin-1-yl)phenyl)amino)pyrido[2,3-d]pyrimidin-7(8H)-one] as the compound, how does the “dTm 36” value (NEK1) read?
Its value is 0.0 °C.

And the “dTm 36” value (STLK3)?
Its value is 9.3 °C.

And the “dTm 36” value (BRAF)?
The value was 0.8 °C.

What about the “dTm 36” value (PIM3) of the same compound?
Its value is -2.1 °C.

And the “dTm 36” value (DRAK1)?
Its value is 6.1 °C.

What about the “dTm 36” value (DRAK2) of the same compound?
Its value is 4.3 °C.

For `COc1cc(N2CCOCC2)ccc1Nc1ncc2cc(-c3ccc(-c4cccc(C)n4)cc3Cl)c(=O)n(CCCCN)c2n1` [compound 35, 8-(4-Aminobutyl)-6-(2-chloro-4-(6-methylpyridin-2-yl)phenyl)-2-((2-methoxy-4-morpholino-phenyl)amino)pyrido[2,3-d]pyrimidin-7(8H)-one], which “dTm 35” value (NEK1) is on record?
The value was -0.7 °C.

And the “dTm 35” value (STLK3)?
The value was 13.4 °C.

What about the “dTm 35” value (BRAF) of the same compound?
Its value is 0.8 °C.

What about the “dTm 35” value (PIM3) of the same compound?
The value was -2.4 °C.

And the “dTm 35” value (DRAK1)?
Its value is 5.2 °C.

What about the “dTm 35” value (DRAK2) of the same compound?
The value was 7.0 °C.

Which results are given for `Cc1cccc(-c2ccc(-c3cc4cnc(Nc5ccc(F)c(CO)c5)nc4n(CCCCN)c3=O)c(Cl)c2)n1` [compound 33, 8-(4-Aminobutyl)-6-(2-chloro-4-(6-methylpyridin-2-yl)phenyl)-2-((4-fluoro-3-(hydroxymethyl)phenyl)amino)pyrido[2,3-d]pyrimidin-7(8H)-one]?
dTm 33 (NEK1): -3.6 °C; dTm 33 (STLK3): 16.8 °C; dTm 33 (BRAF): 6.3 °C; dTm 33 (PIM3): 4.6 °C; dTm 33 (DRAK1): 3.5 °C; dTm 33 (DRAK2): 10.5 °C

Which “dTm 34” value (NEK1) does the source give for `COc1ccc(O)c(Nc2ncc3cc(-c4ccc(-c5cccc(C)n5)cc4Cl)c(=O)n(CCCCN)c3n2)c1` [compound 34, 8-(4-Aminobutyl)-6-(2-chloro-4-(6-methylpyridin-2-yl)phenyl)-2-((2-hydroxy-5-methoxy-phenyl)amino)pyrido[2,3-d]pyrimidin-7(8H)-one] here?
The value was -1.0 °C.

What about the “dTm 34” value (STLK3) of the same compound?
The value was 11.0 °C.

What about the “dTm 34” value (BRAF) of the same compound?
The value was 1.1 °C.

What about the “dTm 34” value (PIM3) of the same compound?
The value was 2.4 °C.

And the “dTm 34” value (DRAK1)?
The value was 2.2 °C.

And the “dTm 34” value (DRAK2)?
Its value is 7.5 °C.
